Data published in patent publication US8895695B2, “Template-fixed beta-hairpin peptidomimetics with CXCR4 antagonizing activity” (priority 2003, dated 2014).
Bridge positions count the residues as written; N and C are the ends. Square brackets hold non-standard residues; d marks the D form. Peptide text beside a SMILES is read from it. 2Nal = N[C@@H](Cc1ccc2ccccc2c1)C(=O)O; Cit = NC(=O)NCCC[C@H](N)C(=O)O; Dab = NCC[C@H](N)C(=O)O

Key:
in vitro [1] = conditions: human; for CC50 at 48 h: HELA cells (Acc57)
[2] = tested on: human red blood cells (hRBC); assay: Hemolysis; assay type: cell-based
Method in brief: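 Washed fresh human erythrocytes (20% v/v, about 0.9×10^9 cells/ml final) incubated with peptide at 100 μM for 1 h at 37° C. Supernatant diluted 20-fold and OD540 read. Percent hemolysis relative to 0.1% Triton X-100 in H2O (100%), with PBS alone as 0%.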

CXCR4 [3] = target: T1, CXCR4 (Homo sapiens, UniProt P61073); assay: Ca2+-assay method 1: CXCR4-antagonizing activity; assay type: cell-based; parameters: expressed in transfected cells; conditions: method 1 (Ex. 1-53), CXCR4 transfected pre-B cells, Fura-2; read-out: IC50 (nM) Ca^2+ assay
Description: 2.2. Ca^2+-Assay: CXCR4-Antagonizing Activity of the Peptides.
The cells were washed free from Fura-2-AM with a platelet centrifuge and resuspended in 800 μl MSB containing 5 mM D-Glucose. The peptides to be administered were diluted to a 100 fold end concentration in MSB/0.2% PPL, and 8 μl were injected. […] Measurements were done under continuous stirring at 37° C. The signal intension was calibrated with 3 mM CaCl2/[…] lonomycin (maximal fura-2-acetoxymethylester saturation) and 10 μM MnCl2 (minimal Fura-2-acetoxymethylester saturation) and [Ca^2+]i-changes are presented in % fora-2-acetoxymethylester saturation. The rate of [Ca^2+]i-changes was calculated on the basis of the initial [Ca^2+]i-changes and plotted in dependence of chemokine concentration to obtain a sigmoidal curve and to determine the IC50 values.
Osmolarity: 310 mOsm adjusted with NaOH or HCl, adjusted with H2O or PBS.
MSB plus: 5 mM D-glucose in MSB (50 mg/50 mL).
Fura 2-acetoxymethylester: 1 mM stock solution in dimethylsulfoxide.

CXCR4 [4] = target: T1, CXCR4; assay: Ca2+-assay method 2 (Flexstation, SDF-1 induced calcium mobilization); assay type: cell-based; parameters: expressed in transfected cells; host or cells: mouse pre-B cell line 300-19; conditions: method 2 (Ex. 54-160), mouse pre-B cell line 300-19 with human CXCR4, 10 nM SDF-1; read-out: IC50 (nM) Ca^2+ assay
in vitro [5] = assay type: in vitro ADME; conditions: plasma
Description: 405 μl of plasma/albumin solution were placed in a polypropylene (PP) tube and spiked with 45 μl of compound from a 100 μM solution B, derived from 135 μl of PBS and 15 μl of 1 mM peptide in PBS, pH 7.4. 150 μl aliquots were transferred into individual wells of the 10 kDa filter plate (Millipore MAPPB 1010 Biomax membrane). For “0 minutes controls”: 270 μl of PBS were placed in a PP tube and 30 μl of stock solution B was added and vortexed. 150 μl of control solution was placed into one well of the filter plate and serves as “filtered control”.
Further 150 μl of control solution were placed directly into a receiver well (reserved for filtrate) and serve as “not-filtered control”. The entire plate including evaporation lid was incubated for 60 min at 37° C. Plasma samples (rat plasma: Harlan Sera lab UK, human plasma: Blutspendezentrum Zürich) were centrifuged at least for 2 h at 4300 rpm (3500 g) and 15° C. in order to yield 100 μl filtrate. For “serum albumin”-samples (freshly prepared human albumin: Sigma A-4327, rat albumin: Sigma A-6272, all at 40 mg/ml concentration in PBS) approximately 1 hour of centrifugation is sufficient. The filtrates in the receiver PP plate were analysed by LC/MS as followes: Column: Jupiter C18 (Phenomenex), mobile phases: (A) 0.1% formic acid in water and (B) acetonitrile, gradient: 5%-100% (B) in 2 minutes, electrospray ionization, MRM detection (triple quadrupole). The peak areas were determined and triplicate values are averaged. The binding is expressed in percent of the (filtered and not-filtered time point 0 min) control 1 and 2 by: 100−(100*T60/T0). The average from these values is then calculated (see ref. 9 below).
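For CC50 in this document: MTT reduction read as absorbance at 595 nm, blank-corrected and expressed as percent growth relative to the time-zero cell reading, triplicate wells per concentration.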
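For GI50 in this document: MTT reduction read as absorbance at 595 nm, blank-corrected and expressed as percent growth relative to the time-zero cell reading, triplicate wells per concentration.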

T1 sequence (P61073 whole entry): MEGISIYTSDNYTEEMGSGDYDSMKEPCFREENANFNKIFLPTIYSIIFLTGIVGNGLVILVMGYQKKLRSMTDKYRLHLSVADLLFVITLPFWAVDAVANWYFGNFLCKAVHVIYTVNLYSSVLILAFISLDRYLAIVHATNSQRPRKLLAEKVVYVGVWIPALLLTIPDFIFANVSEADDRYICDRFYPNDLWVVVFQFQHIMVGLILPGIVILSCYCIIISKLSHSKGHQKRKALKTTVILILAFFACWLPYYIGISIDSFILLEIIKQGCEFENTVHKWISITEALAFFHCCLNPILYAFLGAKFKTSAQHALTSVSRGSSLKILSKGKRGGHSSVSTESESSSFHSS

CC(C)[C@@H]1NC(=O)[C@H](CCCNC(N)=O)NC(=O)[C@H](CCCNC(=N)N)NC(=O)[C@H](Cc2ccc(O)cc2)NC(=O)[C@@H]2CCCN2C(=O)[C@H]2CCCN2C(=O)[C@H](CCCCN)NC(=O)[C@H](CCCNC(N)=O)NC(=O)[C@H](Cc2ccc(O)cc2)NC(=O)[C@H](Cc2ccccc2)NC(=O)[C@H](Cc2ccc3ccccc3c2)NC(=O)[C@H](CCCNC(=N)N)NC(=O)[C@@H](CCCNC(=N)N)NC(=O)[C@H](CCCNC(=N)N)NC1=O [Ex. 1] (cyclo(YR[Cit]VR[dR]R[2Nal]FY[Cit]K[dP]P))
CC50 at 48 h (in vitro [1]): 82 µM | Hemolysis at 100 μM [2]: 1.6% | IC50 (CXCR4 [3]): 2280 nM

CC(C)[C@@H]1NC(=O)[C@H](Cc2ccc3ccccc3c2)NC(=O)[C@H](CCCNC(=N)N)NC(=O)[C@H](CCCNC(=N)N)NC(=O)[C@@H]2CCCN2C(=O)[C@H](C(C)C)NC(=O)[C@H](CCCNC(=N)N)NC(=O)[C@H](Cc2ccccc2)NC(=O)[C@H](CCCNC(N)=O)NC(=O)[C@H](CCCNC(=N)N)NC(=O)[C@H](Cc2ccc(O)cc2)NC(=O)[C@@H]2CCCN2C(=O)[C@H]2CCCN2C(=O)[C@H](CCCCN)NC(=O)[C@H](CCCNC(N)=O)NC(=O)[C@H](Cc2ccc(O)cc2)NC1=O [compound 22] (cyclo(YR[Cit]FRVPRR[2Nal]VY[Cit]K[dP]P))
CC50 at 48 h (in vitro [1]): 139 µM | Hemolysis at 100 μM [2]: 0% | IC50 (CXCR4 [3]): 300 nM

CC(C)[C@@H]1NC(=O)[C@H](Cc2ccc3ccccc3c2)NC(=O)[C@H](CCCNC(=N)N)NC(=O)[C@H](CCCNC(=N)N)NC(=O)[C@@H]2CCCN2C(=O)[C@H](Cc2ccccc2)NC(=O)[C@H](CCCNC(=N)N)NC(=O)[C@H](Cc2ccccc2)NC(=O)[C@H](CCCNC(N)=O)NC(=O)[C@H](CCCNC(=N)N)NC(=O)[C@H](Cc2ccc(O)cc2)NC(=O)[C@@H]2CCCN2C(=O)[C@H]2CCCN2C(=O)[C@H](CCCCN)NC(=O)[C@H](CCCNC(N)=O)NC(=O)[C@H](Cc2ccc(O)cc2)NC1=O [compound 24] (cyclo(YR[Cit]FRFPRR[2Nal]VY[Cit]K[dP]P))
CC50 at 48 h (in vitro [1]): 108 µM | Hemolysis at 100 μM [2]: 0.7% | IC50 (CXCR4 [3]): 850 nM

CC(C)[C@@H]1NC(=O)[C@H](Cc2ccc3ccccc3c2)NC(=O)[C@H](CCCNC(=N)N)NC(=O)[C@H](CCCNC(=N)N)NC(=O)[C@H]2CCCN2C(=O)[C@H](Cc2ccccc2)NC(=O)[C@H](CCCNC(=N)N)NC(=O)[C@H](Cc2ccccc2)NC(=O)[C@H](CCCNC(N)=O)NC(=O)[C@H](CCCNC(=N)N)NC(=O)[C@H](Cc2ccc(O)cc2)NC(=O)[C@@H]2CCCN2C(=O)[C@H]2CCCN2C(=O)[C@H](CCCCN)NC(=O)[C@H](CCCNC(N)=O)NC(=O)[C@H](Cc2ccc(O)cc2)NC1=O [compound 23] (cyclo(YR[Cit]FRF[dP]RR[2Nal]VY[Cit]K[dP]P))
CC50 at 48 h (in vitro [1]): 49 µM | Hemolysis at 100 μM [2]: 1.4% | IC50 (CXCR4 [3]): 1550 nM

N=C(N)NCCC[C@@H]1NC(=O)[C@H](CCCNC(=N)N)NC(=O)[C@H](Cc2ccccc2)NC(=O)[C@H](CCCNC(N)=O)NC(=O)[C@H](CCCNC(=N)N)NC(=O)[C@H](Cc2ccc(O)cc2)NC(=O)[C@@H]2CCCN2C(=O)[C@H]2CCCN2C(=O)[C@H](CCCCN)NC(=O)[C@H](CCCNC(N)=O)NC(=O)[C@H](Cc2ccc(O)cc2)NC(=O)[C@H](Cc2ccccc2)NC(=O)[C@H](Cc2ccc3ccccc3c2)NC(=O)[C@H](CCCNC(=N)N)NC1=O [compound 3] (cyclo(YR[Cit]FRRR[2Nal]FY[Cit]K[dP]P))
CC50 at 48 h (in vitro [1]): 126 µM | Hemolysis at 100 μM [2]: 1.7% | IC50 (CXCR4 [3]): 1000 nM

CC(C)[C@@H]1NC(=O)[C@H](CCCNC(N)=O)NC(=O)[C@H](CCCNC(=N)N)NC(=O)[C@H](Cc2ccc(O)cc2)NC(=O)[C@@H]2CCCN2C(=O)[C@H]2CCCN2C(=O)[C@H](CCCCN)NC(=O)[C@H](CCCNC(N)=O)NC(=O)[C@H](Cc2ccc(O)cc2)NC(=O)[C@H](Cc2ccccc2)NC(=O)[C@H](Cc2ccc3ccccc3c2)NC(=O)[C@H](CCCNC(=N)N)NC(=O)[C@H](CCCNC(=N)N)NC(=O)[C@H]2CCCN2C(=O)[C@H](C(C)C)NC(=O)[C@H](CCCNC(=N)N)NC1=O [compound 32] (cyclo(YR[Cit]VRV[dP]RR[2Nal]FY[Cit]K[dP]P))
CC50 at 48 h (in vitro [1]): 85 µM | Hemolysis at 100 μM [2]: 0.5% | IC50 (CXCR4 [3]): 760 nM

CC(C)[C@@H]1NC(=O)[C@H](CCCNC(N)=O)NC(=O)[C@H](CCCNC(=N)N)NC(=O)[C@H](Cc2ccc(O)cc2)NC(=O)[C@@H]2CCCN2C(=O)[C@H]2CCCN2C(=O)[C@H](CCCCN)NC(=O)[C@H](CCCNC(N)=O)NC(=O)[C@H](Cc2ccc(O)cc2)NC(=O)[C@H](Cc2ccccc2)NC(=O)[C@H](Cc2ccc3ccccc3c2)NC(=O)[C@H](CCCNC(=N)N)NC(=O)[C@H](CCCNC(=N)N)NC(=O)[C@@H]2CCCN2C(=O)[C@H](CCCNC(N)=O)NC(=O)[C@H](CCCNC(=N)N)NC1=O [compound 31] (cyclo(YR[Cit]VR[Cit]PRR[2Nal]FY[Cit]K[dP]P))
CC50 at 48 h (in vitro [1]): 82 µM | Hemolysis at 100 μM [2]: 0.1% | IC50 (CXCR4 [3]): 1470 nM

N=C(N)NCCC[C@@H]1NC(=O)[C@H](CCCNC(=N)N)NC(=O)[C@H]2CCCN2C(=O)CNC(=O)[C@H](CO)NC(=O)[C@@H]2CSSC[C@H](NC(=O)[C@H](Cc3ccc4ccccc4c3)NC1=O)C(=O)N[C@@H](Cc1ccc(O)cc1)C(=O)N[C@@H](CCC(N)=O)C(=O)N[C@@H](CCCCN)C(=O)N1CCC[C@@H]1C(=O)N1CCC[C@H]1C(=O)N[C@@H](Cc1ccc(O)cc1)C(=O)N[C@@H](CCCNC(=N)N)C(=O)N[C@@H](CCCNC(N)=O)C(=O)N2 [Ex. 101] (cyclo(YR[Cit]CSG[dP]RR[2Nal]CYQK[dP]P); disulfide 4-11)
IC50 (CXCR4 [4]): 1.28 nM | GI50 at 48 h (in vitro [1]): 74 µM | Hemolysis at 100 μM [2]: 0.6% | half-life at 10 μM (in vitro [5]; human): > 5 h | half-life at 10 μM (in vitro [5]; rat): 4.12 h

N=C(N)NCCC[C@@H]1NC(=O)[C@@H]2CSSC[C@H](NC(=O)[C@H](Cc3ccc4ccccc4c3)NC(=O)[C@H](CCCNC(=N)N)NC(=O)[C@H](CCCNC(=N)N)NC(=O)[C@H]3CCCN3C(=O)CNC1=O)C(=O)N[C@@H](Cc1ccc(O)cc1)C(=O)N[C@@H](CCC(N)=O)C(=O)N[C@@H](CC(=O)O)C(=O)N1CCC[C@@H]1C(=O)N1CCC[C@H]1C(=O)N[C@@H](Cc1ccc(O)cc1)C(=O)N[C@@H](CCCNC(=N)N)C(=O)N[C@@H](CCCNC(N)=O)C(=O)N2 [Ex. 85] (cyclo(YR[Cit]CRG[dP]RR[2Nal]CYQD[dP]P); disulfide 4-11)
IC50 (CXCR4 [4]): 2.7 nM | GI50 at 48 h (in vitro [1]): 94 µM | Hemolysis at 100 μM [2]: 0% | half-life at 10 μM (in vitro [5]; human): 2.77 h | half-life at 10 μM (in vitro [5]; rat): > 5 h

C[C@@H](O)[C@@H]1NC(=O)[C@H](CCCNC(=N)N)NC(=O)[C@H](Cc2ccc(O)cc2)NC(=O)[C@@H]2CCCN2C(=O)[C@H]2CCCN2C(=O)[C@H](CCCCN)NC(=O)[C@H](CCC(N)=O)NC(=O)[C@H](Cc2ccc(O)cc2)NC(=O)[C@@H]2CSSC[C@H](NC1=O)C(=O)N[C@@H](CCCNC(=N)N)C(=O)NCC(=O)N1CCC[C@@H]1C(=O)N[C@@H](CCN)C(=O)N[C@@H](CCCNC(=N)N)C(=O)N[C@@H](Cc1c[nH]c3ccccc13)C(=O)N2 [Ex. 110] (cyclo(YRTCRG[dP][Dab]RWCYQK[dP]P); disulfide 4-11)
IC50 (CXCR4 [4]): 1.7 nM | GI50 at 48 h (in vitro [1]): 48 µM | Hemolysis at 100 μM [2]: 0% | half-life at 10 μM (in vitro [5]; human): 1.92 h | half-life at 10 μM (in vitro [5]; rat): 4.32 h
